ChEMBL document CHEMBL5370538, “Discovery of novel 6-p-tolyl-3-(3,4,5-trimethoxybenzyl)-7H-[1,2,4]triazolo[3,4-b][1,3,4]thiadiazine derivative as a potent tubulin inhibitor with promising in vivo antitumor activity” (Eur J Med Chem, 2023)
Calls of active or inactive are those of the source. No cut-off for these calls is given here.

Key:
HT-29 = assay: Antiproliferative activity against human HT-29 cells assessed as cell growth inhibition incubated for 48 hrs by MTT assay; assay type: functional, cell-based; details: HT-29, 48 h
[1] = Antiproliferative activity against human HEK293 cells assessed as cell growth inhibition incubated for 48 hrs by MTT assay; assay type: toxicity, cell-based
MDA-MB-231 = assay: Antiproliferative activity against human MDA-MB-231 cells assessed as cell growth inhibition incubated for 48 hrs by MTT assay; assay type: functional, cell-based; details: MDA-MB-231, 48 h
Tubulin (Homo sapiens) [2] = target: T1, Tubulin (Homo sapiens) (UniProt P68371+Q9H4B7+P0DPH7+P68366+Q13509+Q71U36+P04350+Q3ZCM7+P07437+P68363+Q9BQE3+Q6PEY2+Q13885+Q9BVA1+Q9BUF5); assay: Inhibition of tubulin polymerization (unknown origin) at 10 uM measured for 20 mins in presence of GTP by spectrophotometry analysis relative to control; assay type: protein-complex assay
HeLa = assay: Antiproliferative activity against human HeLa cells assessed as cell growth inhibition incubated for 48 hrs by MTT assay; assay type: functional, cell-based
A549 = assay: Antiproliferative activity against human A549 cells assessed as cell growth inhibition incubated for 48 hrs by MTT assay; assay type: functional, cell-based; details: A549, 48 h
Tubulin (Homo sapiens) [3] = target: T1, Tubulin (Homo sapiens); assay: Inhibition of tubulin polymerization (unknown origin) at 10 uM measured for 20 mins in presence of GTP by spectrophotometry analysis; assay type: protein-complex assay

IC50 (HT-29) [µM] | Structure (SMILES) | other results
26.2 | COc1ccc(C2=Nn3c(COc4cc(OC)c(OC)c(OC)c4)nnc3SC2)cc1OC(C)=O | 
> 50 | COc1ccc(C2=Nn3c(COc4cc(OC)c(OC)c(OC)c4)nnc3SC2)cc1F | 
4.93 | COc1ccc(C2=Nn3c(COc4cc(OC)c(OC)c(OC)c4)nnc3SC2)cc1N | 
> 50 | COc1cc(Cc2nnc3n2N=C(c2ccc([N+](=O)[O-])cc2)CS3)cc(OC)c1OC | 
> 50 | COc1cc(Cc2nnc3n2N=C(c2ccc(F)cc2)CS3)cc(OC)c1OC | 
> 50 | COc1cc(OCc2nnc3n2N=C(c2ccc(SC)cc2)CS3)cc(OC)c1OC | 
32 | COc1cccc(C2=Nn3c(Cc4cc(OC)c(OC)c(OC)c4)nnc3SC2)c1 | 
> 50 | COc1ccc(C2=Nn3c(Cc4cc(OC)c(OC)c(OC)c4)nnc3SC2)cc1N | 
1.02 | COc1cc(Cc2nnc3n2N=C(c2ccc(Cl)cc2)CS3)cc(OC)c1OC | IC50 at 48 h [1]: > 100 µM; IC50 (MDA-MB-231): 4.63 µM; inhibition (Tubulin (Homo sapiens) [2]): 30%; IC50 (HeLa): 1.33 µM; IC50 (A549): 5.77 µM
 | CC(=O)O[C@H]1C(=O)[C@@]2(C)[C@H]([C@H](OC(=O)c3ccccc3)[C@]3(O)C[C@H](OC(=O)[C@H](O)[C@@H](NC(=O)c4ccccc4)c4ccccc4)C(C)=C1C3(C)C)[C@]1(OC(C)=O)CO[C@@H]1C[C@@H]2O | inhibition (Tubulin (Homo sapiens) [3]): inactive
> 50 | COc1ccc(C2=Nn3c(COc4cc(OC)c(OC)c(OC)c4)nnc3SC2)cc1[N+](=O)[O-] | 
> 50 | COc1cc(OCc2nnc3n2N=C(c2ccc(C(F)(F)F)cc2)CS3)cc(OC)c1OC | 
36.4 | COc1ccc(C2=Nn3c(COc4cc(OC)c(OC)c(OC)c4)nnc3SC2)cc1O | 
49.2 | COc1ccc(C2=Nn3c(Cc4cc(OC)c(OC)c(OC)c4)nnc3SC2)cc1[N+](=O)[O-] | 
9.69 | COc1ccc(C2=Nn3c(Cc4cc(OC)c(OC)c(OC)c4)nnc3SC2)cc1O | 
48.1 | COc1cc(OCc2nnc3n2N=C(c2ccc(Cl)c(Cl)c2)CS3)cc(OC)c1OC | 
> 50 | COc1cc(Cc2nnc3n2N=C(c2ccc(-c4ccccc4)cc2)CS3)cc(OC)c1OC | 
> 50 | COc1ccc(C2=Nn3c(COc4cc(OC)c(OC)c(OC)c4)nnc3SC2)cc1OC | 
> 50 | COc1cc(OCc2nnc3n2N=C(c2ccc(N)cc2)CS3)cc(OC)c1OC | 
0.41 | COc1cc(OCc2nnc3n2N=C(c2ccc(N(C)C)cc2)CS3)cc(OC)c1OC | IC50 at 48 h [1]: > 100 µM; IC50 (MDA-MB-231): 9.73 µM; inhibition (Tubulin (Homo sapiens) [2]): 12%; IC50 (HeLa): 2.2 µM; IC50 (A549): > 50 µM
0.46 | COc1cc(OCc2nnc3n2N=C(c2ccc(C)cc2)CS3)cc(OC)c1OC | IC50 at 48 h [1]: > 100 µM; IC50 (MDA-MB-231): 12.8 µM; inhibition (Tubulin (Homo sapiens) [2]): 11%; IC50 (HeLa): > 50 µM; IC50 (A549): 30.6 µM
43.6 | COc1cc(Cc2nnc3n2N=C(c2ccc(Br)cc2)CS3)cc(OC)c1OC | 
0.62 | COc1ccc(Cc2nnc(SCC(=O)c3ccc(C)cc3)n2N)c(OC)c1OC | IC50 at 48 h [1]: > 100 µM; IC50 (MDA-MB-231): > 50 µM; IC50 (HeLa): 9.02 µM; IC50 (A549): 11.8 µM
42.8 | COc1ccc(C2=Nn3c(Cc4cc(OC)c(OC)c(OC)c4)nnc3SC2)cc1 | 
> 50 | COc1cc(Cc2nnc3n2N=C(c2ccccc2)CS3)cc(OC)c1OC | 
35.2 | COc1cc(Cc2nnc3n2N=C(c2ccc(N(C)C)cc2)CS3)cc(OC)c1OC | 
5.03 | COc1cc(Cc2nnc3n2N=C(c2ccc(C(F)(F)F)cc2)CS3)cc(OC)c1OC | 
44.6 | COc1cc(Cc2nnc3n2N=C(c2ccccc2F)CS3)cc(OC)c1OC | 
> 50 | COc1cc(Cc2nnc3n2N=C(c2cccs2)CS3)cc(OC)c1OC | 

Structure (SMILES) | IC50 (HT-29) [µM] | other results
COc1ccc(/C=C\c2cc(OC)c(OC)c(OC)c2)cc1O [COMBRETASTATIN A4] | 1.18 | IC50 (MDA-MB-231): 0.077 µM; IC50 (HeLa): 0.043 µM
